Measured values from ChEMBL document CHEMBL1201862, “PubChem BioAssay data set” (2004).
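96-well plates; 48 h exposure; 5 concentrations. Endpoints by linear interpolation between flanking doses. Not reached: highest tested concentration assigned. GI50 marks 50% less growth.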 Calls of active or inactive are those of the source. Rule as the data show it: active = GI50 up to about 1.1 µM and inactive = higher.

Legend:
Assay in all cases: NCI anticancer screen, dose series, 48 h
ACHN = tested on: ACHN
SW-620 = tested on: SW-620
SK-MEL-28 = tested on: SK-MEL-28
NCI-H226 = tested on: NCI-H226
SF-295 = tested on: SF-295
OVCAR-8 = tested on: OVCAR-8
COLO 205 = tested on: COLO 205
PC-3 = tested on: PC-3
IGROV-1 = tested on: IGROV-1
MCF7 = tested on: MCF7
TK-10 = tested on: TK-10
NCI-H460 = tested on: NCI-H460
HT-29 = tested on: HT-29
OVCAR-5 = tested on: OVCAR-5
NCI/ADR-RES = tested on: NCI/ADR-RES
UO-31 = tested on: UO-31
U-251 = tested on: U-251
BT-549 = tested on: BT-549
HL-60 = tested on: HL-60
EKVX = tested on: EKVX
MDA-N = tested on: MDA-N
Malme-3M = tested on: Malme-3M
A549 = tested on: A549
UACC-257 = tested on: UACC-257
SN12C = tested on: SN12C
SK-MEL-5 = tested on: SK-MEL-5
NCI-H23 = tested on: NCI-H23
DU-145 = tested on: DU-145
KM12 = tested on: KM12
CAKI-1 = tested on: CAKI-1
SNB-75 = tested on: SNB-75
HOP-62 = tested on: HOP-62
HCT-15 = tested on: HCT-15
RXF 393 = tested on: RXF 393
RPMI-8226 = tested on: RPMI-8226
CCRF-CEM = tested on: CCRF-CEM
M14 = tested on: M14
HCC 2998 = tested on: HCC 2998
786-0 = tested on: 786-0
T47D = tested on: T47D
OVCAR-4 = tested on: OVCAR-4
OVCAR-3 = tested on: OVCAR-3
UACC-62 = tested on: UACC-62
SF-268 = tested on: SF-268
SK-MEL-2 = tested on: SK-MEL-2
SK-OV-3 = tested on: SK-OV-3
HCT-116 = tested on: HCT-116
Hs-578T = tested on: Hs-578T
MOLT-4 = tested on: MOLT-4
K562 = tested on: K562
SNB-19 = tested on: SNB-19
MDA-MB-435 = tested on: MDA-MB-435
MDA-MB-231 = tested on: MDA-MB-231
SR = tested on: SR
NCI-H522 = tested on: NCI-H522
A498 = tested on: A498
LOX IMVI = tested on: LOX IMVI
HOP-92 = tested on: HOP-92
SF-539 = tested on: SF-539

For `O=S(=O)(c1ccc(Cl)cc1)c1ccccc1C1=NCCN1`, the GI50 (ACHN) was > 100 µM (inactive), the GI50 (SW-620) was > 100 µM (inactive) and the GI50 (SK-MEL-28) was > 100 µM (inactive). The GI50 (NCI-H226) was > 100 µM (inactive), the GI50 (SF-295) was > 100 µM (inactive) and the GI50 (OVCAR-8) was > 100 µM (inactive). For the same compound, the GI50 (COLO 205) was > 100 µM (inactive), the GI50 (PC-3) was > 100 µM (inactive) and the GI50 (IGROV-1) was > 100 µM (inactive). For the same compound, the GI50 (MCF7) was > 100 µM (inactive), the GI50 (TK-10) was > 100 µM (inactive) and the GI50 (NCI-H460) was > 100 µM (inactive). The GI50 (HT-29) was > 100 µM (inactive), the GI50 (OVCAR-5) was > 100 µM (inactive) and the GI50 (NCI/ADR-RES) was > 100 µM (inactive). For the same compound, the GI50 (UO-31) was > 100 µM (inactive), the GI50 (U-251) was > 100 µM (inactive) and the GI50 (BT-549) was > 100 µM (inactive). The GI50 (HL-60) was > 100 µM (inactive), the GI50 (EKVX) was > 100 µM (inactive) and the GI50 (MDA-N) was > 100 µM (inactive). For the same compound, the GI50 (Malme-3M) was > 100 µM (inactive), the GI50 (A549) was > 100 µM (inactive) and the GI50 (UACC-257) was > 100 µM (inactive). For the same compound, the GI50 (SN12C) was > 100 µM (inactive), the GI50 (SK-MEL-5) was > 100 µM (inactive) and the GI50 (NCI-H23) was > 100 µM (inactive). For the same compound, the GI50 (DU-145) was > 100 µM (inactive), the GI50 (KM12) was > 100 µM (inactive) and the GI50 (CAKI-1) was > 100 µM (inactive). For the same compound, the GI50 (SNB-75) was > 100 µM (inactive), the GI50 (HOP-62) was > 100 µM (inactive) and the GI50 (HCT-15) was greater than 100 µM. For the same compound, the GI50 (RXF 393) was > 100 µM (inactive), the GI50 (RPMI-8226) was > 100 µM (inactive) and the GI50 (CCRF-CEM) was > 100 µM (inactive). For the same compound, the GI50 (M14) was > 100 µM (inactive), the GI50 (HCC 2998) was > 100 µM (inactive) and the GI50 (786-0) was > 100 µM (inactive). For the same compound, the GI50 (T47D) was > 100 µM (inactive), the GI50 (OVCAR-4) was > 100 µM (inactive) and the GI50 (OVCAR-3) was > 100 µM (inactive). For the same compound, the GI50 (UACC-62) was > 100 µM (inactive), the GI50 (SF-268) was > 100 µM (inactive) and the GI50 (SK-MEL-2) was > 100 µM (inactive). The GI50 (SK-OV-3) was > 100 µM (inactive), the GI50 (HCT-116) was > 100 µM (inactive) and the GI50 (Hs-578T) was > 100 µM (inactive). For the same compound, the GI50 (MOLT-4) was > 100 µM (inactive), the GI50 (K562) was > 100 µM (inactive) and the GI50 (SNB-19) was > 100 µM (inactive). For the same compound, the GI50 (MDA-MB-435) was > 100 µM (inactive) and the GI50 (MDA-MB-231) was > 100 µM (inactive).

In the case of `COc1c(NC(C)=O)c2ccccc2c2ccccc12`, the GI50 (ACHN) is reported as > 100 µM (inactive), the GI50 (SW-620) is reported as > 100 µM (inactive) and the GI50 (SK-MEL-28) is reported as > 100 µM (inactive). The GI50 (NCI-H226) was 49.5 µM (inactive), the GI50 (SF-295) was > 100 µM (inactive) and the GI50 (OVCAR-8) was > 100 µM (inactive). For the same compound, the GI50 (PC-3) was > 100 µM (inactive), the GI50 (IGROV-1) was > 100 µM (inactive) and the GI50 (TK-10) was > 100 µM (inactive). The GI50 (NCI-H460) was > 100 µM (inactive), the GI50 (HT-29) was > 100 µM (inactive) and the GI50 (OVCAR-5) was > 100 µM (inactive). The GI50 (NCI/ADR-RES) was > 100 µM (inactive), the GI50 (UO-31) was 89.3 µM (inactive) and the GI50 (SR) was > 100 µM (inactive). For the same compound, the GI50 (U-251) was > 100 µM (inactive), the GI50 (BT-549) was > 100 µM (inactive) and the GI50 (HL-60) was 99.5 µM (inactive). The GI50 (EKVX) was > 100 µM (inactive), the GI50 (MDA-N) was > 100 µM (inactive) and the GI50 (Malme-3M) was > 100 µM (inactive). For the same compound, the GI50 (NCI-H522) was > 100 µM (inactive), the GI50 (A549) was > 100 µM (inactive) and the GI50 (A498) was > 100 µM (inactive). The GI50 (UACC-257) was > 100 µM (inactive), the GI50 (SN12C) was > 100 µM (inactive) and the GI50 (SK-MEL-5) was > 100 µM (inactive). The GI50 (NCI-H23) was > 100 µM (inactive), the GI50 (DU-145) was > 100 µM (inactive) and the GI50 (LOX IMVI) was > 100 µM (inactive). For the same compound, the GI50 (KM12) was > 100 µM (inactive), the GI50 (HOP-62) was > 100 µM (inactive) and the GI50 (HCT-15) was greater than 100 µM. The GI50 (RXF 393) was > 100 µM (inactive), the GI50 (CCRF-CEM) was > 100 µM (inactive) and the GI50 (M14) was > 100 µM (inactive). The GI50 (786-0) was > 100 µM (inactive), the GI50 (T47D) was > 100 µM (inactive) and the GI50 (OVCAR-4) was > 100 µM (inactive). For the same compound, the GI50 (OVCAR-3) was > 100 µM (inactive), the GI50 (UACC-62) was > 100 µM (inactive) and the GI50 (HOP-92) was 42.2 µM (inactive). For the same compound, the GI50 (SF-268) was > 100 µM (inactive), the GI50 (SK-MEL-2) was > 100 µM (inactive) and the GI50 (HCT-116) was > 100 µM (inactive). The GI50 (Hs-578T) was > 100 µM (inactive), the GI50 (MOLT-4) was 66.5 µM (inactive) and the GI50 (K562) was 75 µM (inactive). The GI50 (SNB-19) was > 100 µM (inactive), the GI50 (MDA-MB-435) was > 100 µM (inactive) and the GI50 (MDA-MB-231) was > 100 µM (inactive).

In the case of `NNC(=O)CS(=O)(=O)Nc1ncccn1`, the GI50 (ACHN) is reported as > 100 µM (inactive), the GI50 (SW-620) is reported as > 100 µM (inactive) and the GI50 (SK-MEL-28) is reported as > 100 µM (inactive). The GI50 (NCI-H226) was > 100 µM (inactive), the GI50 (SF-295) was > 100 µM (inactive) and the GI50 (OVCAR-8) was > 100 µM (inactive). For the same compound, the GI50 (COLO 205) was > 100 µM (inactive), the GI50 (PC-3) was > 100 µM (inactive) and the GI50 (IGROV-1) was > 100 µM (inactive). For the same compound, the GI50 (MCF7) was > 100 µM (inactive), the GI50 (TK-10) was 13.2 µM (inactive) and the GI50 (NCI-H460) was > 100 µM (inactive). The GI50 (HT-29) was > 100 µM (inactive), the GI50 (OVCAR-5) was > 100 µM (inactive) and the GI50 (NCI/ADR-RES) was > 100 µM (inactive). The GI50 (UO-31) was > 100 µM (inactive), the GI50 (U-251) was > 100 µM (inactive) and the GI50 (BT-549) was > 100 µM (inactive). For the same compound, the GI50 (EKVX) was > 100 µM (inactive), the GI50 (MDA-N) was > 100 µM (inactive) and the GI50 (Malme-3M) was > 100 µM (inactive). The GI50 (NCI-H522) was > 100 µM (inactive), the GI50 (A549) was > 100 µM (inactive) and the GI50 (A498) was > 100 µM (inactive). For the same compound, the GI50 (UACC-257) was > 100 µM (inactive), the GI50 (SN12C) was > 100 µM (inactive) and the GI50 (SK-MEL-5) was > 100 µM (inactive). The GI50 (NCI-H23) was > 100 µM (inactive), the GI50 (DU-145) was > 100 µM (inactive) and the GI50 (LOX IMVI) was > 100 µM (inactive). The GI50 (KM12) was > 100 µM (inactive), the GI50 (CAKI-1) was > 100 µM (inactive) and the GI50 (SNB-75) was > 100 µM (inactive). The GI50 (HOP-62) was > 100 µM (inactive), the GI50 (HCT-15) was greater than 100 µM and the GI50 (RXF 393) was > 100 µM (inactive). For the same compound, the GI50 (RPMI-8226) was > 100 µM (inactive), the GI50 (M14) was > 100 µM (inactive) and the GI50 (786-0) was > 100 µM (inactive). For the same compound, the GI50 (T47D) was > 100 µM (inactive), the GI50 (SF-539) was > 100 µM (inactive) and the GI50 (OVCAR-4) was > 100 µM (inactive). The GI50 (OVCAR-3) was > 100 µM (inactive), the GI50 (UACC-62) was > 100 µM (inactive) and the GI50 (HOP-92) was > 100 µM (inactive). For the same compound, the GI50 (SF-268) was > 100 µM (inactive), the GI50 (SK-MEL-2) was > 100 µM (inactive) and the GI50 (SK-OV-3) was > 100 µM (inactive). For the same compound, the GI50 (HCT-116) was > 100 µM (inactive), the GI50 (Hs-578T) was > 100 µM (inactive) and the GI50 (K562) was > 100 µM (inactive). The GI50 (SNB-19) was > 100 µM (inactive), the GI50 (MDA-MB-435) was > 100 µM (inactive) and the GI50 (MDA-MB-231) was > 100 µM (inactive).
